This note sets out measurements from ChEMBL document CHEMBL1124182, “Design, synthesis, and properties of (4S)-7-(4-amino-2-substituted-pyrrolidin-1-yl)quinolone-3-carboxylic acids” (J Med Chem, 1988).

≈ marks a conversion by molar mass, not a printed value. Where only a bound is given, the exact number is not on record here.

One data set deals with Acinetobacter. Nature of the data set: In vitro Minimum inhibitory concentration against Acinetobacter CMX 669. The format is functional. The conditions noted are these: Acinetobacter; read-out: MIC.
Data set [1] deals with Escherichia coli. Nature of the data set: In vitro Minimum inhibitory concentration against Escherichia coli Juhl. The format is functional.
For a further data set, the system named is Klebsiella pneumoniae. Briefly: In vitro Minimum inhibitory concentration against Klebsiella pneumoniae 8045. It is filed as functional.
Data set [2] deals with Pseudomonas aeruginosa. Nature of the data set: In vitro Minimum inhibitory concentration against Pseudomonas aeruginosa 5007. The format is functional.
Data set [3] concerns Pseudomonas aeruginosa. Nature of the data set: In vitro Minimum inhibitory concentration against Pseudomonas aeruginosa K799/WT. It is filed as functional.
Data set [4] concerns Staphylococcus epidermidis. Briefly: In vitro Minimum inhibitory concentration against Staphylococcus epidermidis 3519. It is filed as functional.
The subject of a further data set is Streptococcus agalactiae. Nature of the data set: In vitro Minimum inhibitory concentration against Streptococcus agalactiae CMX 508. The format is functional.
For data set [5], the system named is Staphylococcus aureus. Nature of the data set: In vitro Minimum inhibitory concentration against Staphylococcus aureus 45. It is filed as functional.
In data set [6] the test system is Staphylococcus aureus. Briefly: In vitro Minimum inhibitory concentration against Staphylococcus aureus A5177. It is filed as functional.
The subject of data set [7] is Staphylococcus aureus. Nature of the data set: In vitro Minimum inhibitory concentration against Staphylococcus aureus ATCC 6538P. It is filed as functional.
The next data set relates to Streptococcus equinus. Briefly: In vitro Minimum inhibitory concentration against Streptococcus bovis A5169. The format is functional.
The subject of another data set is Enterococcus faecium. Nature of the data set: In vitro Minimum inhibitory concentration against Streptococcus faecium ATCC 8043. The format is functional.
In the next data set the test system is Streptococcus pyogenes. Briefly: In vitro Minimum inhibitory concentration against Streptococcus pyogenes 930. It is filed as functional.
The subject of data set [8] is Staphylococcus aureus. Briefly: In vitro Minimum inhibitory concentration against Staphylococcus aureus CMX 686B. The format is functional.
A short description of data set [9]: Partition coefficient (logP). The format is physicochemical. The conditions noted are these: octanol/water.
For data set [10], the system named is Escherichia coli. Nature of the data set: Supercoiling inhibition assay using purified DNA gyrase isolated from Escherichia coli H560. The format is functional. The conditions noted are these: read-out: I50.
Data set [11] is described as follows: Blood level was evaluated by a disk agar diffusion assay at 3.0 hh when administered at a peroral dose of 25 mg/kg. It is filed as ADME, organism-based. Conditions: mouse, po, read-out: Blood level. Further details: dose 25 mg/kg, route oral. Background: Agar diffusion results depend on both activity and mobility in agar.
Data set [12] deals with Mus musculus. Briefly: In vivo efficacy against Escherichia coli Juhl, in mouse protection tests when administered perorally (po). It is filed as functional.
In data set [13] the test system is Mus musculus. Briefly: In vivo efficacy against Escherichia coli Juhl, in mouse protection tests when administered subcutaneously (sc). The format is functional.
For data set [14], the system named is Staphylococcus aureus. Nature of the data set: In vivo efficacy against Staphylococcus aureus 10649, in mouse protection tests when administered perorally (po). It is filed as functional.
The subject of data set [15] is Staphylococcus aureus. Nature of the data set: In vivo efficacy against Staphylococcus aureus 10649, in mouse protection tests when administered subcutaneously (sc). It is filed as functional.
A short description of data set [16]: Compound was evaluated for the solubility in Ringer's buffer solution. It is filed as ADME. Conditions: Ringer's buffer solution; read-out: Solubility.

The MIC is the lowest concentration that inhibits growth of the organism. Usually logP stands for a log measure of how a compound divides between an organic and an aqueous phase. Low readings indicate a more hydrophilic compound, high ones a more lipophilic compound. In general, ED50 refers to the dose at which the effect has come halfway, by size or by number of responders. As usually defined, the solubility is the dissolved amount per volume that the medium holds.

Turning to `COCC1C[C@H](N)CN1c1nc2c(cc1F)c(=O)c(C(=O)O)cn2-c1ccc(F)cc1F` (stereo partly drawn), the MIC in the data set with Acinetobacter amounted to 0.78 µg/mL (≈ 1.74 µM); with Escherichia coli [1], 0.2 µg/mL (≈ 0.446 µM); in the data set on Klebsiella pneumoniae, 0.1 µg/mL (≈ 0.223 µM); with Pseudomonas aeruginosa [2] it was 1.56 µg/mL (≈ 3.48 µM); against Pseudomonas aeruginosa [3] it was 1.56 µg/mL (≈ 3.48 µM); in data set [4], 0.39 µg/mL (≈ 0.87 µM). Further, the MIC was 0.78 µg/mL (≈ 1.74 µM) in the data set with Streptococcus agalactiae; 0.39 µg/mL (≈ 0.87 µM) in the data set on Staphylococcus aureus [5]; 0.2 µg/mL (≈ 0.446 µM) against Staphylococcus aureus [6]; 0.1 µg/mL (≈ 0.223 µM) in the data set with Staphylococcus aureus [7]; 1.56 µg/mL (≈ 3.48 µM) against Streptococcus equinus; 0.78 µg/mL (≈ 1.74 µM) with Enterococcus faecium. Moreover, the MIC turned out to be 0.78 µg/mL (≈ 1.74 µM) with Streptococcus pyogenes and 0.1 µg/mL (≈ 0.223 µM) in the data set on Staphylococcus aureus [8].

For `O=C(O)c1cn(-c2ccc(F)cc2F)c2cc(N3C[C@@H]4C[C@H]3CN4)c(F)cc2c1=O`, the MIC is 0.39 µg/mL (≈ 0.939 µM) in the data set on Acinetobacter; 0.05 µg/mL (≈ 0.12 µM) in the data set on Escherichia coli [1]; 0.05 µg/mL (≈ 0.12 µM) against Klebsiella pneumoniae; 1.56 µg/mL (≈ 3.76 µM) in the data set with Pseudomonas aeruginosa [2]; 0.39 µg/mL (≈ 0.939 µM) with Pseudomonas aeruginosa [3]; 0.39 µg/mL (≈ 0.939 µM) in data set [4]. Also, the MIC is 0.78 µg/mL (≈ 1.88 µM) against Streptococcus agalactiae; 0.78 µg/mL (≈ 1.88 µM) in the data set on Staphylococcus aureus [5]; 0.39 µg/mL (≈ 0.939 µM) in the data set on Staphylococcus aureus [6]; 0.1 µg/mL (≈ 0.241 µM) in the data set with Staphylococcus aureus [7]; 1.56 µg/mL (≈ 3.76 µM) in the data set with Streptococcus equinus; 0.39 µg/mL (≈ 0.939 µM) in the data set with Enterococcus faecium. Moreover, the MIC against Streptococcus pyogenes came to 0.78 µg/mL (≈ 1.88 µM); in the data set with Staphylococcus aureus [8], 0.2 µg/mL (≈ 0.481 µM).

In data set [9], `C[C@H]1C[C@H](N)CN1c1cc2c(cc1F)c(=O)c(C(=O)O)cn2-c1ccc(F)cc1F` showed a logP of 0.085. Moreover, the MIC was 0.1 µg/mL (≈ 0.24 µM) with Acinetobacter; 0.05 µg/mL (≈ 0.12 µM) with Escherichia coli [1]; 0.02 µg/mL (≈ 0.0479 µM) in the data set on Klebsiella pneumoniae; 3.1 µg/mL (≈ 7.43 µM) against Pseudomonas aeruginosa [2]; 0.39 µg/mL (≈ 0.934 µM) against Pseudomonas aeruginosa [3]; 0.2 µg/mL (≈ 0.479 µM) in [4]. The MIC was 0.1 µg/mL (≈ 0.24 µM) with Streptococcus agalactiae; 0.1 µg/mL (≈ 0.24 µM) against Staphylococcus aureus [5]; 0.2 µg/mL (≈ 0.479 µM) with Staphylococcus aureus [6]; 0.02 µg/mL (≈ 0.0479 µM) in the data set with Staphylococcus aureus [7]; 0.2 µg/mL (≈ 0.479 µM) in the data set on Streptococcus equinus; 0.1 µg/mL (≈ 0.24 µM) with Enterococcus faecium. Also, the MIC with Streptococcus pyogenes worked out at 0.2 µg/mL (≈ 0.479 µM); against Staphylococcus aureus [8] it was 0.05 µg/mL (≈ 0.12 µM). The IC50 with Escherichia coli [10] worked out at 0.9 µg/mL (≈ 2.16 µM). Further, the concentration at 3 h in data set [11] came out at 1100 ng/mL. Also, the ED50 with Mus musculus [12] was 3.6 mg/kg; with Mus musculus [13], 0.9 mg/kg; with Staphylococcus aureus [14] it was 3.3 mg/kg; in the data set with Staphylococcus aureus [15] it was less than 0.5 mg/kg. In addition, the solubility in [16] came out at 53 µg/mL (≈ 127 µM).

Take `O=C(O)c1cn(-c2ccc(F)cc2)c2cc(N3CCC[C@@H]3CO)c(F)cc2c1=O`: the MIC with Acinetobacter worked out at 0.78 µg/mL (≈ 1.95 µM); against Escherichia coli [1], 0.78 µg/mL (≈ 1.95 µM); against Klebsiella pneumoniae, 0.78 µg/mL (≈ 1.95 µM); with Pseudomonas aeruginosa [2], 3.1 µg/mL (≈ 7.74 µM); in the data set with Pseudomonas aeruginosa [3], 3.1 µg/mL (≈ 7.74 µM); in data set [4], 0.39 µg/mL (≈ 0.974 µM). Also, the MIC in the data set on Streptococcus agalactiae turned out to be 3.1 µg/mL (≈ 7.74 µM); in the data set on Staphylococcus aureus [5] it was 0.39 µg/mL (≈ 0.974 µM); in the data set with Staphylococcus aureus [6] it was 0.39 µg/mL (≈ 0.974 µM); in the data set on Staphylococcus aureus [7], 0.1 µg/mL (≈ 0.25 µM); in the data set with Streptococcus equinus it was 25 µg/mL (≈ 62.4 µM); in the data set on Enterococcus faecium it was 3.1 µg/mL (≈ 7.74 µM). The MIC was 3.1 µg/mL (≈ 7.74 µM) against Streptococcus pyogenes and 0.1 µg/mL (≈ 0.25 µM) against Staphylococcus aureus [8].

In the case of `O=C(O)c1cn(-c2ccc(F)cc2F)c2nc(N3C[C@@H]4C[C@H]3CN4)c(F)cc2c1=O`, the MIC is 0.39 µg/mL (≈ 0.937 µM) in the data set with Acinetobacter; 0.05 µg/mL (≈ 0.12 µM) with Escherichia coli [1]; 0.05 µg/mL (≈ 0.12 µM) against Klebsiella pneumoniae; 0.39 µg/mL (≈ 0.937 µM) against Pseudomonas aeruginosa [2]; 0.39 µg/mL (≈ 0.937 µM) in the data set on Pseudomonas aeruginosa [3]; 0.39 µg/mL (≈ 0.937 µM) in data set [4]. For the same molecule, the MIC against Streptococcus agalactiae was 0.78 µg/mL (≈ 1.87 µM); against Staphylococcus aureus [5], 0.78 µg/mL (≈ 1.87 µM); in the data set with Staphylococcus aureus [6] it was 0.39 µg/mL (≈ 0.937 µM); against Staphylococcus aureus [7], 0.1 µg/mL (≈ 0.24 µM); with Streptococcus equinus, 1.56 µg/mL (≈ 3.75 µM); against Enterococcus faecium, 0.39 µg/mL (≈ 0.937 µM). The MIC against Streptococcus pyogenes is 0.78 µg/mL (≈ 1.87 µM); against Staphylococcus aureus [8], 0.2 µg/mL (≈ 0.48 µM).
